Experiment [1] deals with spared nerve injury-induced neuropathic pain in rats. The experiment can be described thus: Spared nerve injury (SNI)-induced neuropathic pain model, thermal and mechanical pain thresholds. It is filed as in vivo, rat. Particulars: rat, in vivo. As to the method:
Of the three branches of the sciatic nerve the tibial and common peroneal nerves were cut and ligated leaving the sural nerve intact. Pre-surgery baselines (BL, 100%) of the thermal and mechanical pain thresholds of the ipsilateral hindpaws were measured using the Hargreaves thermal stimulator (6.0 A with a surface temperature of 30° C.; Hargreaves et al., 1988) and von Frey hair monofilaments (up-down method, Chaplan et al., 1994). […] All drug testing was conducted with this post-SNI period.
The rat recovered from anesthesia within a few minutes and the thermal and mechanical pain thresholds were determined at 0.5, 1, 2, 3, 4, 5 and 6 hour after the treatment using the methods described above.
Using the same test protocol in a different cohort of SNI rats, novel AFA-peptide 3 (0.1, 1 and 3 μM, each 50 μL) or the vehicle (50 μL) was injected into the ipsilateral hindpaws under a brief and light anesthesia condition (with 2.5% isoflurane). The thermal and mechanical pain thresholds were determined at 0.5, 1, 2, 3, 4, 5 and 6 hour after the treatment. […]

In experiment [2] the target is T1, human calcitonin CGRP1 (CGRP1) membrane (Homo sapiens, UniProt O60894+Q16602).
T1 construct: purchased Perkin Elmer (Waltham, Mass.)
Format: binding. Conditions: for Hill slope: 0.24 nM [125I]-CGRP, Mean±SD; for binding affinity on CGRP receptors (in words): comparison between peptides. Here is the method: CGRP1 membrane was homogenized in the assay buffer (50 mM Tris-HCl pH 7.4, 5 mM MgCl2, 0.5% BSA, 0.05% Tween20). […] After 1 h of incubation, at room temperature, samples were filtered, using a Tomtec cell harvester, through glass fiber filters that had been presoaked in 0.05% polyethyleneimine and washed with the cold Tris buffer (50 mM Tris-HCl pH7.4). Filters were counted on a betaplate reader (Wallac).

For experiment [3], the system named is normal physiological pain sensation in normal rats. The experiment can be described thus: Normal rats cheek withdrawal latency to noxious heat. Particulars: rat, in vivo. As to the method:
Ideal therapeutics of anti-inflammatory pain or anti-hypersensitivity (occurred in neuropathic pain) should not interfere with normal physiological pain sensations. […] After removing the patches, cheek withdrawal latencies (mean±SEM) were assessed using continuous and noxious heat at different time points within the initial 3 hours test period.

Experiment [4] concerns paw incision-induced postoperative pain in rats. Kind of experiment: Paw incision-induced postoperative pain model, mechanical pain threshold. It is filed as in vivo, rat. Particulars: rat, in vivo. The text has this:
A clinically applicable incision model in rodents is a hind-paw deep incision that produces a robust mechanical and cold allodynia, and thermal hyperalgesia (Pogatzki et al., 2003; Xu and Brennan, 2010). Male rats (Sprague-Dawley, 250-260 g, Harlan) used (n=8/group) were anesthetized with 2.5% isoflurane and the skin of the dorsolateral hindpaw surface were prepped by first depilitating it (using Nair), followed by rinsing and application of povidone-iodine. Afterwards, a 5 mm longitudinal incision was made near the hairy/glabrous border though the skin and subcutaneous fascia of the left hindpaw as described by (Pogatzki et al., 2003; Xu and Brennan, 2010). After briefly elevating the underlying muscle with curved forceps the wound is closed with a single nylon (8-0) mattress stitch.
Pre-surgery (baseline) and 24 hours after the surgery, the mechanical allodynia of the incision hindpaws of the rats were assessed using von Frey monofilaments with an up/down procedure (Chaplan et al., 1994). […] Mechanical pain thresholds were measured at 0.5, 1, 2, 3, 4, 5 and 6 hours post-intradermal injection.

Experiment [5] has as its system STZ-induced diabetic pain in rats. Kind of experiment: Streptozotocin (STZ)-induced diabetic neuropathic pain model. Conditions: rat, in vivo. Here is the method: Painful peripheral neuropathy is a common secondary complication of diabetes mellitus. Streptozotocin (STZ)-induced diabetic polyneuropathy causes more broad pain and has neurogenic inflammation component in rodents (Bishnoi et al., 2011). Prior to STZ administration, each rat's baseline of thermal and mechanical thresholds on their individual hindpaws were assessed using the Hargreaves thermal pain test, and von Frey mechanical pain test, respectively.
After removing the patches, hindpaw withdrawal latencies induced by continuous and noxious heat (Hargreaves) were assessed at 1 hour post-microneedle application.

The subject of experiment [6] is electrocutaneous stimulation-induced facial pain in rats. Kind of experiment: Electrocutaneous stimulation-induced facial inflammatory pain model. It is filed as in vivo, rat. Conditions: rat, in vivo. Here is the method: In humans electrocutaneous stimulation elicited vasodilatation in the cheek (Vassend and Knardahl, 2005). […] Baseline facial thermal thresholds of rats (Sprague-Dawley, male, 260-300 g) were assessed on the rats' depilated left cheek and then each rat received 1 hour of electrocutaneous facial stimulation using WPI ISOSTIM™ A320 (World Precision Instruments, 0.4 mA intensity, 10 ms duration, Is inter-pulse interval). 24 hr after stimulation (Day 1), each rat's thermal pain threshold mediated by A-delta fiber and C fiber were separately measured using a thermal nociception lamp (variable voltage regulator model: No. SC-3M) to evoke A-delta and C nerve fiber-mediated cheek withdrawal. […] Thermal thresholds were measured once every 0.5 hour for the first 3 hours post-I.N. dosing, and then 4, 5, and 6 hour post-I.N. dosing. Voltage regulator set to 90V for A-delta fiber testing and 45V for C fiber testing. Cutoff set at 6 seconds and 20 seconds for A-delta fiber and C fiber testing, respectively.

Experiment [7] has as its system UVB radiation-induced inflammatory pain in rat cheek. Format: in vivo. Conditions: rat, in vivo.
From the text: Ultraviolet B (UVB) radiation causes cutaneous inflammation in humans and animals. One important clinical consequence of UVB-induced inflammation is causing hyperalgesia. Changes in thermal sensitivities in the area of primary UVB irradiation are well documented both in humans and in the animal models (Zhang et al., 2009). […] This model provides an experimental model of post radiation pain and can mimic one type of burn pain. To determine the magnitude of anti-inflammatory pain effects for a given drug transdermally delivered by way of microneedle delivery, the depilated rat's cheeks were exposed to an inflammatory dosage of Ultraviolet B radiation (Zhang et al., 2009).
With the skin of a rat's cheek was stretched, the circular (8 mm in diameter) fiberglass applicator of the UV Curing Device (Dymax Bluewave 200) was applied to the center of the rat's cheek. To produce an appropriate inflammation, a total dose of 1200 mJ/cm^2 UVB was administered to one rat cheek for 25 seconds. The same procedure was performed on the rat's contralateral cheek. Upon completion of UVB irradiation, all rats were returned to their home cages and were assessed for thermal pain between 24-48 hours later. […] The rats were lightly anesthetized with urethane (800 mg/kg, IP) and heat-induced withdrawal latencies of the cheeks (an indicator of C fiber stimulation responses) were measured. […] A sham control group (n=6) were only completely depilated and cleansed with ethanol wipes but without UVB challenge.
After removing patches, cheek withdrawal latencies induced by continuous and noxious heat were assessed at different time points from the end of the 20 minute treatment period up to 3 hours post treatment.
The patches were applied on the rat cheek for 20 minutes. After removing the patches, cheek withdrawal latencies induced by continuous and noxious heat were assessed at different time points up to 3 hours as described above.
(§1) After removing the patches, cheek withdrawal latencies induced by continuous and noxious heat were assessed at different time points up to 3 hours.
Accordingly, anti-inflammatory effects were examined 48 hours post-UVB and after the application of the patch. Twelve rats were subjected to UVB radiation (1200 mJ/cm^2). […] The patch was placed over the inflamed area for a period of 20 minutes. […] Sham control group rats (n=6) were completely depilated and cleansed with ethanol wipes but without any other treatment. The rats were returned to their home cages, and assessed for thermal pain responses 48 hours later. As usual, cheek withdrawal latencies in response to continuous and noxious heat were recorded over a 3-hour time period (hours 49-51 post-UVB).
as §1
After removing the patches, cheek withdrawal latencies induced by continuous and noxious heat were assessed at different time points from 20 minutes post administration up to 3 hours.
Because UVB-irradiation may increase skin permeability, a topical formulation, but not limited to the sample shown here, was made.

Experiment [8] shares this test system. It is filed as in vivo. Particulars: rat, in vivo. This is another data set of the same source.

By Hill slope is commonly meant the slope factor of the fitted curve.

Values joined by “and” are separate entries in the source; they are usually repeats but may differ in a detail not shown here. Equal values may be shown once. No end group written: not given here.

T1 sequence (O60894 27-148): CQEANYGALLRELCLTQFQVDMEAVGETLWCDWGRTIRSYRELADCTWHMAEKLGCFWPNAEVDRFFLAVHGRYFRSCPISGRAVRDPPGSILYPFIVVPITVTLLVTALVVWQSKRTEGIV
T1 sequence (Q16602 23-461): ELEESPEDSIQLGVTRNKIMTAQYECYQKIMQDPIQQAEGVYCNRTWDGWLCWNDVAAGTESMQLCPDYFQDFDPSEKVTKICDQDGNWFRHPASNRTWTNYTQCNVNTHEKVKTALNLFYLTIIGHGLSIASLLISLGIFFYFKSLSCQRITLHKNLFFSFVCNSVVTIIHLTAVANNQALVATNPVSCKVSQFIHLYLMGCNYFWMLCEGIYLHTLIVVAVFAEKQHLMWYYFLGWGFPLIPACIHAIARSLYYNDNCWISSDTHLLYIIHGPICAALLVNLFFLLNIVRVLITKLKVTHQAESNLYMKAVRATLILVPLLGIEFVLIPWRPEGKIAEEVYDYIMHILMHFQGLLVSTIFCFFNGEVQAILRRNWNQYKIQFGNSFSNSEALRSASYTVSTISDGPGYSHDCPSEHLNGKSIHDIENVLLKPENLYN

Consider `NCC1(CC(=O)O)CCCCC1` [Gabapentin, gabapentin], for which, in experiment [1], the “duration of thermal antihyperalgesic effect” value was determined as 3 h, the “effect on thermal threshold (in words)” value is “significant antihyperalgesic effect” and the “time of full reversal / peak antihyperalgesic effect after application” value came to 1 h.
Consider “H-NFAPTNVGPFAF-NH2 [AFA- peptide 10, NH2-N-F-A-P-T-N-V-G-P-F-A-F-CONH2]”, for which, in experiment [2], the Hill slope is on record as 1.07 ± 0.01; the “binding affinity on CGRP receptors (in words)” value (“binding affinity” below) was “higher affinities than conventional CGRP 27-37 and CGRP 8-37”.
YVPTAVGPFAF-NH2 [CGRP 27-37]: the Hill slope in experiment [2] came to 1.62 ± 0.25.
`CCN(CC)CC(=O)Nc1c(C)cccc1C` [Lidocaine, lidocaine]: the “analgesic effect on normal nociceptive pain (in words)” value in experiment [3] is “produced analgesic effect on normal nociceptive pain”. Moreover, in experiment [1], the “thermal and mechanical pain thresholds (in words)” value is “produced positive control”.
For the compound “H-NFIPTNVGPFAF-NH2 [AFA- peptide 6, NH2-N-F-I-P-T-N-V-G-P-F-A-F-CONH2]”, the Hill slope in experiment [2] is given as 1.13 ± 0.13.
Consider `CSCC[C@H](NC(=O)CNC(=O)CNC(=O)[C@H](CO)NC(=O)[C@H](CCCNC(=N)N)NC(=O)[C@H](CO)NC(=O)[C@H](CC(C)C)NC(=O)[C@H](CC(C)C)NC(=O)CNC(=O)[C@H](C)NC(=O)[C@H](CC(C)C)NC(=O)[C@H](CCCNC(=N)N)NC(=O)[C@H](Cc1c[nH]cn1)NC(=O)[C@@H](NC(=O)[C@@H](N)C(C)C)[C@@H](C)O)C(=O)N[C@H](C(=O)N[C@@H](CCCCN)C(=O)N[C@@H](CO)C(=O)N[C@@H](CC(N)=O)C(=O)N[C@@H](Cc1ccccc1)C(=O)N[C@H](C(=O)N1CCC[C@H]1C(=O)N[C@H](C(=O)N[C@@H](CC(N)=O)C(=O)N[C@H](C(=O)NCC(=O)N[C@@H](CO)C(=O)N[C@@H](CCCCN)C(=O)N[C@@H](C)C(=O)N[C@@H](Cc1ccccc1)C(N)=O)C(C)C)[C@@H](C)O)C(C)C)C(C)C` [CGRP 8-37], for which, in experiment [4], the “mechanical pain thresholds vs vehicle (in words)” value is “significantly increased mechanical pain thresholds” and the “onset of analgesic effect post treatment” value came to 1 h. Moreover, in experiment [5], the “return to mechanical pain baseline values” amounted to 35% and the “thermal threshold (in words)” value was “full return to their baseline thermal thresholds”. In experiment [3], the “Normal Rats Average Pain Response Latency, Mean” value is 10.3 s and 11.0 s and 11.2 s and 10.6 s and 10.5 s and 9.6 s and 10.1 s and 10.2 s; the “analgesic effect on normal nociceptive pain (in words)” value is listed as “did not produce any measurable analgesic effect”. For the same compound, in experiment [6], the “A-delta fiber-mediated pain withdrawal latencies vs vehicle (in words)” value was “insignificant analgesic effects”; the “C-fiber-mediated pain withdrawal latencies vs vehicle (in words)” value was “even more substantial and significantly prolonged”; the “thermal pain thresholds in naïve, non-facial stimulation rats (in words)” value was “did not alter thermal pain thresholds”. For the same compound, in experiment [1], the “duration of anti-allodynic effect” value is reported as “up to 6 hours”, the “duration of thermal antihyperalgesic effect” value is recorded as “up to 5 hours”, the “effect on thermal threshold (in words)” value is “full reversal to baseline thermal threshold values” and the “return toward baseline mechanical sensitivity” value is reported as about 25%. For the same compound, in experiment [1], the “thermal and mechanical pain thresholds (in words)” value is on record as “reduced SNI-induced neuropathic pain”; the “time of full reversal / peak antihyperalgesic effect after application” value is recorded as “around 1 hour”; the “time of maximal anti-allodynic effect post-microneedle application” value was determined as 3 h. Also, in experiment [7], the “Average Reduced Latency for Inflammation, Mean” value is 9.9 s and 10.5 s and 11.2 s and 11.0 s and 12.2 s and 8.0 s and 9.1 s; the “C-fiber-mediated thermal pain thresholds vs vehicle (in words)” value was “significant and substantial increase”; the duration of action was 2 h. The “A-delta-fiber-mediated responses (in words)” value in experiment [8] is “little effects”.
On to “H-NLVPTNVGPFAF-NH2 [AFA- peptide 8, NH2-N-L-V-P-T-N-V-G-P-F-A-F-CONH2]”, for which, in experiment [2], the Hill slope was determined as 0.88 ± 0.18.
Take “H-NFLPTNVGPFAF-NH2 [AFA- peptide 7, NH2-N-F-L-P-T-N-V-G-P-F-A-F-CONH2]”: in experiment [2], the Hill slope worked out at 1.03 ± 0.15; the “binding affinity” value is “higher affinities than conventional CGRP 27-37 and CGRP 8-37”.
Consider “H-NFFPTNVGPFAF-NH2 [AFA- peptide 9, NH2-N-F-F-P-T-N-V-G-P-F-A-F-CONH2]”, for which, in experiment [2], the Hill slope turned out to be 1.07 ± 0.05; the “binding affinity” value was “higher affinities than conventional CGRP 27-37 and CGRP 8-37”.

(Values after patent US10287337B2 (priority 2015, dated 2019).)
